Assay results reported in EP0621342A1, “Reagent and kit for determining isoprenylating activity and inhibition thereof” (NEDERLANDSE ORGANISATIE VOOR …, priority 1993, dated 1994).

Target: protein:farnesyltransferase (Oryctolagus cuniculus, UniProt G1SFC8+G1T7D9)
Assay: Inhibition of protein:farnesyl transferase activity in rabbit reticulocyte lysate (Sepharose-bound peptide, 3H-FPP)
Type: biochemical
Conditions: 80 pmol of pepAsep and pepBsep/5 µl beads, 0.7 µM ³H-FPP, 30 min at 37°C, read-out: IC₅₀-value
Method: Commercially available rabbit reticulocyte lysate contains enzymes necessary for protein-isoprenylation, such as protein:farnesyl transferase activity (Vorburger, K., Kitten, G.T. and Nigg, E.G., EMBO J. 8 (1989) 4007-4013) and protein:geranylgeranyl transferase (Maltese, W.A. and Robishaw, J.D., J. Biol. Chem. 265 (1990) 18071-18074). Using pepAsep (example I) as substrate and pepBsep (example I) as control the assay of protein:farnesyl transferase activity was performed as follows: In 25 µl of a mixture containing 5 µl of pepAsep or pepBsep (both containing an equal quantity of peptide), 13 µl rabbit reticulocyte lysate (Promega), 0.5 mM MgCl₂, 1 mM DTT, 50 mM Tris-HCl (pH 7.4) and [³H]-farnesyl pyrophosphate (³H-FPP; concentration as indicated in the figures; specific radioactivity 15 Ci/mmol; ARC, USA) the incubation was performed at 37°C for 30 min with continuous shaking. […] The radioactivity bound to the Sepharose was measured in a Packard Tricarb liquid scintillation counter. […]
80 pmol of pepAsep and pepBsep/5 µl Sepharose were incubated for 30 minutes in the presence of 0.7 µM of [³H]-FPP and the indicated concentrations of the farnesyl pyrophosphate analogues FPPA1 and FPPA2 as mentioned in Example IV. The farnesylation activity was calculated as ³H-dpm bound to pepAsep minus the pepBsep-bound-dpm and expressed as percentage of control (without inhibitor). […]

SMILES	IC50 [nM]
CC(C)=CCC/C(C)=C/CC/C(C)=C/COCP(=O)(O)CP(=O)(O)O [FPPA1, (E,E) -[Hydroxy-(3,7,11-trimethyl-2,6,10-dodecatrienyloxymethylphosphinyl)methyl]phosphonic acid]	5260 ± 1100
CC(C)=CCCC(C)=CCCC(C)=CCP(=O)(O)OP(=O)(O)O [FPPA2, farnesyl phosphonophosphate]	290 ± 20
